Structures can show the parent of a compound that is named as a salt. Where two headings read alike, the source gives them in different places.
Columns and labels:
P21 = assay: p21 induction in HeLa cells (Western Blot); assay type: cell-based; design: key: represented by the symbol ‘+’ which indicates the relative extent of modulation; ++: represented by the symbol ‘+’ which indicates the relative extent of modulation; +++: represented by the symbol ‘+’ which indicates the relative extent of modulation; ++++: represented by the symbol ‘+’ which indicates the relative extent of modulation; conditions: 24 hrs, 0.03-3.0 μM
Description: HeLa Cells were seeded at a density of 0.5×10^6 Cells/well into 6 well plates and incubated for 24 hrs. Compounds were tested at 5 different concentrations (0.03, 0.1, 0.3, 1.0, 3.0 μM) including corresponding controls. After 24 hrs cells were lysed and the cellular extract was used for measuring P21 induction by Western Blot using monoclonal Anti-p21 clone CP74 antibody (Sigma).

hERG = molecular target: T1, hERG (Homo sapiens, UniProt Q12809); assay: hERG competitive binding assay (3H-Astemizole); conditions: hERG-CHO membrane, 1 nM 3H-Astemizole
T1 construct: expressed in transfected cells; host or cells: CHO cells (membrane preparation)
Description: The study was carried out to find our cardio safety of the test compounds. Brief procedure: The hERG competitive binding assay performed at a ligand concentration of 1 nM. The test compounds were dissolved in desired volume of 100% DMSO (stock conc. 50 mM). […] The test compound and membrane was pre-incubated for 10 Min at 30° C. 10 μL of ^3H-Astemizole was then added (final concentration of 1 nM), mixed well and incubated additionally for 90 min at 30° C. with mild shaking. At the end of reaction, binding was terminated by rapid filtration onto GF/C glass fiber filter mats, presoaked in 0.3% polyethyleneimine, followed by rapid washing 10 times with ice-cold wash buffer. Captured radiolabel was detected using a liquid scintillation counter. The percent inhibition of the compounds was calculated compared to the vehicle control.

CYP 3A4 = molecular target: T2, CYP 3A4 (Homo sapiens, UniProt P08684); assay: Cytochrome-P450 isoforms liability determination; assay type: in vitro ADME; conditions: fluorescence based kit
T2 construct: purchased
Description: To determine the test compound liability towards Human cytochrome 450 (hCYP450) Isoforms fluorescence based screening kits.
Brief procedure: 2× test compounds were prepared by dilution with deionized water. A serial dilution of the test compound was done. 2× solution of known inhibitor were used as a positive control. 40 μL of the 2× solution that is prepared was added to the desired wells. Two replicates were included for every compound. 50 μL of the Master premix (premix of CYP450 Baclosomes, reagents and regenerating system) was dispensed into each well. The plate was incubated for 20 min at room temperature to allow the compounds to interact with the CYP450enzymes. The reaction was started by adding 10 μL of the substrate and NADP^+ mixture. The plate was incubated for the desired amount of time, and then 10 μL of stop reagent was added to each well to quench the reaction. The fluorescence was measured in the fluorescent plate reader at excitation and emission wavelengths as recommended, depending on the substrate used.

PA-1 = assay: Cell proliferation assay (MTT); assay type: cell-based; conditions: Homo sapiens
Outline: (§1)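 MTT was added for 3 h, formazan dissolved in DMSO and A570 read. GI50 interpolated from dose-response curves of percentage growth relative to a T0 plate.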

NCI-H460 = assay: Cell proliferation assay (MTT); assay type: cell-based; conditions: Homo sapiens
Outline: as §1

Caspase-3 = Caspase-3 activity in HT-29 cells; assay type: cell-based; conditions: Homo sapiens, 48 hours
Description: Caspase-3 activity was measured in HT-29 cells using Caspase-3 assay kit, (Sigma). HT-29 cells were seeded (10,000 cells/well) in a 96 well plate and incubated overnight. Cells were treated with several concentrations (30, 10, 3, 1, 0.3, 0.1, 0.03, 0.01 μM) of the compounds and incubated for 48 hours and the cells were lysed. Assay was carried out according to the manufacturer's protocol. The fluorescent substrate was added in to the cell lysate and the fluorescence was measured at λexi360 and λemi460.

Hela-229 = assay: Anti-proliferative activity (GI50); assay type: cell-based; conditions: Homo sapiens, Table 9, Cervix
Description: (§2) Cells were seeded in a 96-well cell culture plates at a concentration of 10,000 cells per well and incubated at 37° C. in CO2 incubator.
(§3) Twenty-four hours later cells were treated with different concentrations (100, 10, 1, 0.1, and 0.01 μM) of compound dissolved in DMSO and incubated for 48 hours. For To measurement, 24 hours after seeding the cells, 20 μL of 3-(4.5-dimethyl-2- thiazolyl)-2,5-diphenyl-2H-tetrazolium (MTT) solution per well was added to the T0 plate and incubated for 3 hours at 37° C. in a CO2 incubator.
(§4) The plate containing cells and test compounds was treated similarly after 48 hours of incubation. After 3 hours of MTT addition, well contents were aspirated carefully followed by addition of 100 μL DMSO per well. Plates were agitated to ensure dissolution of the formazan crystals in DMSO and absorbance was read at 570 nm (A570). […] From the percentage growths a dose response curve was generated and GI50 values were interpolated from the growth curves.

NCI-H23 = assay: Anti-proliferative activity (GI50); assay type: cell-based; conditions: Homo sapiens, Table 9, Lung
Description: as §2, §3, §4

786-O = assay: Anti-proliferative activity (GI50); assay type: cell-based; conditions: Homo sapiens, 786-0; Table 9; Renal
Description: as §2, §3, §4

SK-OV-3 = assay: Anti-proliferative activity (GI50); assay type: cell-based; conditions: Homo sapiens, Table 9, Ovary
Description: as §2, §3, §4

HL-60 (AML) cells = assay: Differentiation assay; assay type: cell-based; conditions: Homo sapiens, 72 h; HL-60 cells, 3 days, H2 DCF-DA oxidation
Description: HL-60 (AML) cells were seeded (5×10^4 cells/well) into a 96 well plate and after 24 hrs cells were treated for 3 days with compounds in 8 different concentration (3000, 1000, 300, 100, 30, 10, 3, 1 nM) including control and 60 μM of H2 DCF-DA probe added to the cells. After 2 hours incubation oxidation of H2 DCF-DA was measured.

[1] = Table 1, MTT, 48 hours, read-out: Cell growth inhibition (GI50 in μM) PA-1
[2] = Table 9, Ovary, read-out: Anti-proliferative activity (GI50) PA-1
[3] = Table 9, Lung, read-out: Anti-proliferative activity (GI50) NCI-H460
[4] = Table 1, MTT, 48 hours, read-out: Cell growth inhibition (GI50 in μM) NCI H460

T1 sequence (Q12809 whole entry): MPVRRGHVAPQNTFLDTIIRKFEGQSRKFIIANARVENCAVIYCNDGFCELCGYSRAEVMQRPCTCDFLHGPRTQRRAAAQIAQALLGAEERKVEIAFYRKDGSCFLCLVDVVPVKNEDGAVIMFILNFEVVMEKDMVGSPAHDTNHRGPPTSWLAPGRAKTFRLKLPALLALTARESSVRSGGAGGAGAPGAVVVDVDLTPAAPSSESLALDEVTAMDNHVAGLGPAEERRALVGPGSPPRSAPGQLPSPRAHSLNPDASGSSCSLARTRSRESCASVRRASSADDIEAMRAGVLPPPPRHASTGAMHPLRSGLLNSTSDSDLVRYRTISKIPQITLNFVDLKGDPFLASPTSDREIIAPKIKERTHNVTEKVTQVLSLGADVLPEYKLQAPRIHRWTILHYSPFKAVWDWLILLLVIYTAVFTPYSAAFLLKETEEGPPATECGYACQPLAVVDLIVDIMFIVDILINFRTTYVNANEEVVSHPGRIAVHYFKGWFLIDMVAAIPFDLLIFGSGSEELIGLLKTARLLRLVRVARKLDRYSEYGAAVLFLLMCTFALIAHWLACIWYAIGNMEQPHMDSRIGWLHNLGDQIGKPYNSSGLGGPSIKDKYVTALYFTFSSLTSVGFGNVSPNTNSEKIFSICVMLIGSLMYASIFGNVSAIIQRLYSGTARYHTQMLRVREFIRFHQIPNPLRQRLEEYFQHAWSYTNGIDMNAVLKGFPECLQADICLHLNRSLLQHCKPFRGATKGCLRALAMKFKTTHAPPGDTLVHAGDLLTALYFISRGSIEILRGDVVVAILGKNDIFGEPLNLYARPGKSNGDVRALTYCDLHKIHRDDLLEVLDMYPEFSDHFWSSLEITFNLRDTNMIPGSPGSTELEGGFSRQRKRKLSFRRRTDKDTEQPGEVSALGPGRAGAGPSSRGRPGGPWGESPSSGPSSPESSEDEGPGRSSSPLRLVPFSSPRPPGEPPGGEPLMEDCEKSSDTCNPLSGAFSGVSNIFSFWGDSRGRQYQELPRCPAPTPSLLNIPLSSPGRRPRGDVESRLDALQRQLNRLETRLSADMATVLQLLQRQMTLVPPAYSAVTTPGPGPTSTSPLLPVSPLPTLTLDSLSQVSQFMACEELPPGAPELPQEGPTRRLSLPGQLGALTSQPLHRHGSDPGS
T2 sequence (P08684 whole entry, canonical isoform): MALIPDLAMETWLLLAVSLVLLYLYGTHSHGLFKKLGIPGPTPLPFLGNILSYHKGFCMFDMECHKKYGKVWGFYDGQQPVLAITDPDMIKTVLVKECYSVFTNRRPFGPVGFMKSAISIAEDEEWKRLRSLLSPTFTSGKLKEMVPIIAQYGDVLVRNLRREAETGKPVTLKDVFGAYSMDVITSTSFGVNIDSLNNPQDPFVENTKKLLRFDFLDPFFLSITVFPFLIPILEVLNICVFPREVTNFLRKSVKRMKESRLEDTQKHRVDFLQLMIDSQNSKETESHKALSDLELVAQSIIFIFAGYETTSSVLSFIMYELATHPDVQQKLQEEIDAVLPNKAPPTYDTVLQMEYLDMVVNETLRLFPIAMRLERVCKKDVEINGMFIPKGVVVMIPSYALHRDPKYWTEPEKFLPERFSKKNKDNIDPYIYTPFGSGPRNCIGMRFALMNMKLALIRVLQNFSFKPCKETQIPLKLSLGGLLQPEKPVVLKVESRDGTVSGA

Row | SMILES | P21 induction (P21) | IC50 (hERG) [µM] | IC50 (CYP 3A4) [µM] | GI50 (PA-1; [1]) [µM] | GI50 (PA-1; [2]) [µM] | GI50 (NCI-H460; [3]) [µM] | EC50 (Caspase-3) [µM] | GI50 (Hela-229) [µM] | GI50 (NCI-H23) [µM] | GI50 (786-O) [µM] | GI50 (SK-OV-3) [µM] | GI50 (NCI-H460; [4]) [µM] | EC50 (HL-60 (AML) cells) [µM]
1 | O=C(NO)c1ccc(Cn2cc(-c3ccc(CN4CCOCC4)cc3)nn2)cc1 [Example 9, N-Hydroxy-4-[4-(4-morpholin-4-ylmethyl-phenyl)-[1,2,3]triazol-1-ylmethyl]-benzamide] | + | > 100 | 43.2 | 0.22 ± 0.03 | 0.2 ± 0.037 | 2.4 ± 0.85 | 1.5 | 1.4 ± 0.26 | 2.3 ± 1.14 | 2.5 ± 1.01 | 1.8 ± 0.2 |  | 
2 | O=C(/C=C/c1cccc(Cn2cc(-c3ccc(CN4CCOCC4)cc3)nn2)c1)NO [Example 25, N-Hydroxy-3-{3-[4-(4-morpholin-4-ylmethyl-phenyl)-[1,2,3]triazol-1-ylmethyl]-phenyl}-acrylamide hydrochloride] | ++ | > 100 | 12.6 | 0.04 ± 0.01 | 0.04 ± 0.01 | 0.45 ± 0.28 | 3.62 | 0.6 ± 0.38 | 0.4 ± 0.09 | 1.5 ± 0.7 | 0.5 ± 1.2 | 0.8 | 3.83
3 | O=C(NO)c1ccc(Cn2cc(-c3ccc(CN4CCCC4)cc3)nn2)cc1 [Example 8, N-Hydroxy-4-[4-(4-pyrrolidin-1-ylmethyl-phenyl)-[1,2,3]triazol-1-ylmethyl]-benzamide] | + | 19.9 | 28.3 | 0.15 ± 0.05 | 0.1 ± 0.01 | 1.9 ± 0.75 | 1.36 | 1.1 ± 0.23 | 0.9 ± 0.25 | 4.1 ± 1.4 | 1.6 ± 0.1 | 2.1 | 8.24
4 | CN(C)Cc1ccc(-c2cn(Cc3ccc(/C=C/C(=O)NO)cc3)nn2)cc1 [Example 21] |  | 42.6 | 28.5 | 0.11 ± 0.04 | 0.1 ± 0.01 | 1.9 ± 0.74 | 4.09 | 0.7 ± 0.47 | 0.5 ± 0.24 | 2 ± 1.1 | 1.7 ± 0.16 |  | 
5 | O=C(/C=C/c1ccc(Cn2cc(-c3ccc(CN4CCCC4)cc3)nn2)cc1)NO [Example 16, N-Hydroxy-3-{4-[4-(4-pyrrolidin-1-ylmethyl-phenyl)-[1,2,3]triazol-1-ylmethyl]-phenyl}-acrylamide] | + | > 100 | 53.3 | 0.09 ± 0.04 | 0.08 ± 0.04 | 0.3 ± 0.04 | 6.59 | 1 ± 0.27 | 0.52 ± 0.04 | 2.65 ± 0.08 | 0.04 ± 0.016 | 0.4 | 2.88
6 | O=C(CCCCCCC(=O)Nc1ccccc1)NO [SAHA, Suberoylanilide Hydroxamic Acid, reference compound] | +++ |  |  |  |  |  |  |  |  |  |  |  | 
